Measurements reported in PubChem BioAssay AID212 (DTP/NCI, 2004).
“And” between values parts separate entries of the source, which are not always exact repeats. Identical values can stand only once. Inconclusive results are not listed.

Test system: BDF1 mice, colon carcinoma 38 sc, T/C %
Test: NCI In Vivo Anticancer Drug Screen. Data for tumor model Colon Carcinoma 38 (subcutaneous) in B6D2F1 (BDF1) mice
Conditions: endpoint: median tumor weight (est.), higher = larger tumour
How it was run: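 T/C readout: treated group (T) measurement over vehicle control group (C) measurement. Endpoint is survival or tumor size in mice bearing a transplanted tumor.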

[1] = dose: 12.5 mg/kg/injection, schedule: Q07DX002 (ip), vehicle: Klucel (hydroxypropylcellulose) (HPC)
[2] = dose: 25.0 mg/kg/injection, schedule: Q07DX002 (ip), vehicle: Klucel (hydroxypropylcellulose) (HPC)
[3] = dose: 200.0 mg/kg/injection, schedule: Q07DX002 (ip), vehicle: Klucel (hydroxypropylcellulose) (HPC)
[4] = dose: 6.25 mg/kg/injection, schedule: Q07DX002 (ip), vehicle: saline with Tween-80
[5] = dose: 25.0 mg/kg/injection, schedule: Q07DX002 (ip), vehicle: saline with Tween-80
[6] = dose: 12.5 mg/kg/injection, schedule: Q07DX002 (ip), vehicle: saline with Tween-80
[7] = dose: 50.0 mg/kg/injection, schedule: Q07DX002 (ip), vehicle: saline with Tween-80
[8] = dose: 100.0 mg/kg/injection, schedule: Q07DX002 (ip), vehicle: saline with Tween-80
[9] = dose: 200.0 mg/kg/injection, schedule: Q07DX002 (ip), vehicle: saline with Tween-80

For `Cc1cc(N(CCOS(C)(=O)=O)CCOS(C)(=O)=O)ccc1C=Nc1ccc(-c2nc(Cc3ccccc3)sc2C)cc1`, the T/C [1] was 112 % of control and 91 % of control, the T/C [2] was 100 % of control and 102 % of control and the T/C (dose: 50.0 mg/kg/injection, schedule: Q07DX002 (ip), vehicle: Klucel (hydroxypropylcellulose) (HPC)) was 112 % of control and 98 % of control. The T/C (dose: 100.0 mg/kg/injection, schedule: Q07DX002 (ip), vehicle: Klucel (hydroxypropylcellulose) (HPC)) was 63 % of control and 76 % of control and the T/C [3] was 18 % of control and 30 % of control.
`C=CCOCC1CO1` (stereo not given) was tested, and the T/C (dose: 12.5 mg/kg/injection, schedule: Q07DX002 (ip), vehicle: saline) was 66 % of control, the T/C (dose: 100.0 mg/kg/injection, schedule: Q07DX002 (ip), vehicle: saline) was 85 % of control and the T/C (dose: 200.0 mg/kg/injection, schedule: Q07DX002 (ip), vehicle: saline) was 122 % of control.
With `COc1cc(O)c2c(O)c3c(c4c2c1[C@]1(C4)C(C)=CCCC1(C)C)[C@H](O)[C@@]1(O)CC(=O)C(C(N)=O)=C(O)[C@@]1(O)C3=O` the T/C [4] was 92 % of control and 97 % of control and the T/C [5] was 87 % of control and 101 % of control.
`COC1C(O)C(C)OC(OC2C(Oc3cccc4c(O)c5c(=O)oc6ccc(C)c7c(=O)oc(c34)c5c67)OC(C)C(O)C2O)C1O` (stereo not given) was tested, and the T/C [1] was 118 % of control and 108 % of control, the T/C [6] was 111 % of control and the T/C (dose: 12.5 mg/kg/injection, schedule: Q07DX003 (ip), vehicle: Klucel (hydroxypropylcellulose) (HPC)) was 72 % of control and 92 % of control. The T/C [2] was 57 % of control, the T/C [5] was 83 % of control and the T/C (dose: 25.0 mg/kg/injection, schedule: Q07DX003 (ip), vehicle: Klucel (hydroxypropylcellulose) (HPC)) was 103 % of control. The T/C [7] was 84 % of control, the T/C [8] was 75 % of control and the T/C (dose: 100.0 mg/kg/injection, schedule: Q07DX003 (ip), vehicle: Klucel (hydroxypropylcellulose) (HPC)) was 88 % of control and 104 % of control. The T/C [3] was 157 % of control and the T/C [9] was 107 % of control.
In the case of `N#Cc1nc(C#N)c(Sc2ccccc2)c(Sc2ccccc2)c1Sc1ccccc1`, the T/C [4] is reported as 93 % of control, the T/C [6] is reported as 30 % of control and the T/C [5] is reported as 67 % of control. The T/C [7] was 78 % of control, the T/C [8] was 92 % of control and the T/C [9] was 54 % of control.
`Cc1ncc(CNC(=O)N(CCCl)N=O)c(N)n1` was tested, and the T/C (dose: 6.25 mg/kg/injection, schedule: Q07DX003 (ip), vehicle: saline) was 82 % of control, the T/C [1] was 73 % of control and the T/C (dose: 12.5 mg/kg/injection, schedule: Q07DX003 (ip), vehicle: saline) was 88 % of control. For the same molecule, the T/C [2] was 32 % of control and the T/C (dose: 25.0 mg/kg/injection, schedule: Q07DX003 (ip), vehicle: saline) was 31 % of control.
With `CN1CCN(c2ccc([N+](=O)[O-])c3no[n+]([O-])c23)CC1` the T/C (dose: 5.0 mg/kg/injection, schedule: Q07DX002 (ip), vehicle: saline with Tween-80) was 105 % of control, the T/C (dose: 20.0 mg/kg/injection, schedule: Q07DX002 (ip), vehicle: saline with Tween-80) was 77 % of control and the T/C (dose: 40.0 mg/kg/injection, schedule: Q07DX002 (ip), vehicle: saline with Tween-80) was 68 % of control.
With `CC1(C)OC2C(COC(=O)c3ccc([N+](=O)[O-])cc3)OC(NC(=O)N(CCCl)N=O)C2O1` (stereo not given) the T/C [4] was 62 % of control, the T/C [6] was 112 % of control and 123 % of control and the T/C (dose: 12.5 mg/kg/injection, schedule: Q07DX003 (ip), vehicle: saline with Tween-80) was 106 % of control. For the same molecule, the T/C [5] was 68 % of control, the T/C (dose: 25.0 mg/kg/injection, schedule: Q07DX003 (ip), vehicle: saline with Tween-80) was 88 % of control and the T/C [7] was 61 % of control and 82 % of control. The T/C (dose: 50.0 mg/kg/injection, schedule: Q07DX003 (ip), vehicle: saline with Tween-80) was 68 % of control, the T/C [8] was 48 % of control and 67 % of control and the T/C (dose: 100.0 mg/kg/injection, schedule: Q07DX003 (ip), vehicle: saline with Tween-80) was 40 % of control. The T/C (dose: 200.0 mg/kg/injection, schedule: Q07DX003 (ip), vehicle: saline with Tween-80) was 4 % of control.
For `C=C1C(C2(C)C(OC(C)=O)CC(=O)OC(C)(COC(C)=O)C2CC(=O)OC)C(OC=O)C(OC(=O)C(O)C(C)CC)C2(C)C(c3ccoc3)CC(=O)C12O` (stereo not given), the T/C (dose: 3.0 mg/kg/injection, schedule: Q07DX002 (ip), vehicle: Klucel (hydroxypropylcellulose) (HPC)) was 64 % of control, the T/C (dose: 6.0 mg/kg/injection, schedule: Q07DX002 (ip), vehicle: Klucel (hydroxypropylcellulose) (HPC)) was 68 % of control and the T/C (dose: 12.0 mg/kg/injection, schedule: Q07DX002 (ip), vehicle: Klucel (hydroxypropylcellulose) (HPC)) was 77 % of control. The T/C (dose: 24.0 mg/kg/injection, schedule: Q07DX002 (ip), vehicle: Klucel (hydroxypropylcellulose) (HPC)) was 90 % of control and the T/C (dose: 48.0 mg/kg/injection, schedule: Q07DX002 (ip), vehicle: Klucel (hydroxypropylcellulose) (HPC)) was 61 % of control.
